# Key:
# [1] = Distribution coefficient, log D of the compound at pH 7.4 by chromatographic method; format: physicochemical; details: octanol/water
# [2] = Permeability across phosphatidyl choline membrane at pH 7.4 after 3 hrs by HPLC with UV detection method; format: ADME; details: not told, read-out: permeability
# [3] = target: T1, Bromodomain-containing protein 3 (Homo sapiens, UniProt Q15059); test: Binding affinity to BRD3 containing BD1 bromodomains (unknown origin) by TR-FRET assay
# [4] = target: T2, Bromodomain-containing protein 4 (Homo sapiens, UniProt O60885); test: Binding affinity to BRD4 containing BD1 bromodomains (unknown origin) by TR-FRET assay
# [5] = target: T1, Bromodomain-containing protein 3; test: Binding affinity to BRD3 containing BD2 bromodomains (unknown origin) by TR-FRET assay
# [6] = target: T2, Bromodomain-containing protein 4; test: Binding affinity to BRD4 containing BD2 bromodomains (unknown origin) by TR-FRET assay
# [7] = target: T3, Bromodomain testis-specific protein (Homo sapiens, UniProt Q58F21); test: Binding affinity to BRDt containing BD2 bromodomains (unknown origin) by TR-FRET assay
# [8] = target: Bromodomain-containing protein 4 (Homo sapiens, UniProt O60885, Y390A)
# [9] = physchem; details: phosphate buffered saline, pH 7.4, solubility
# Description: Solubility of the compound in phosphate buffered saline at pH 7.4 after 1 hr by CLND method
# [10] = target: Tyrosine-protein kinase BAZ1B (Homo sapiens, UniProt Q9UIG0); test: Binding affinity to BAZ1B in human HUT78 cells incubated for 45 mins by mass spectrometry based bromosphere chemoproteomic assay; format: cell-based
# [11] = target: Bromodomain adjacent to zinc finger domain protein 2A (Homo sapiens, UniProt Q9UIF9); test: Binding affinity to BAZ2A in human HUT78 cells incubated for 45 mins by mass spectrometry based bromosphere chemoproteomic assay; format: cell-based
# [12] = target: Nucleosome-remodeling factor subunit BPTF (Homo sapiens, UniProt Q12830); test: Binding affinity to BPTF in human HUT78 cells incubated for 45 mins by mass spectrometry based bromosphere chemoproteomic assay; format: cell-based
# [13] = target: Bromodomain-containing protein 2 (Homo sapiens, UniProt P25440); test: Binding affinity to BRD2 in human HUT78 cells incubated for 45 mins by mass spectrometry based bromosphere chemoproteomic assay; format: cell-based
# [14] = target: T1, Bromodomain-containing protein 3; test: Binding affinity to BRD3 in human HUT78 cells incubated for 45 mins by mass spectrometry based bromosphere chemoproteomic assay; format: cell-based
# [15] = target: Bromodomain-containing protein 7 (Homo sapiens, UniProt Q9NPI1); test: Binding affinity to BRD7 in human HUT78 cells incubated for 45 mins by mass spectrometry based bromosphere chemoproteomic assay; format: cell-based
# [16] = target: T4, Bromodomain-containing protein 9 (Homo sapiens, UniProt Q9H8M2); test: Binding affinity to BRD9 in human HUT78 cells incubated for 45 mins by mass spectrometry based bromosphere chemoproteomic assay; format: cell-based
# T4 sequence (Q9H8M2 whole entry): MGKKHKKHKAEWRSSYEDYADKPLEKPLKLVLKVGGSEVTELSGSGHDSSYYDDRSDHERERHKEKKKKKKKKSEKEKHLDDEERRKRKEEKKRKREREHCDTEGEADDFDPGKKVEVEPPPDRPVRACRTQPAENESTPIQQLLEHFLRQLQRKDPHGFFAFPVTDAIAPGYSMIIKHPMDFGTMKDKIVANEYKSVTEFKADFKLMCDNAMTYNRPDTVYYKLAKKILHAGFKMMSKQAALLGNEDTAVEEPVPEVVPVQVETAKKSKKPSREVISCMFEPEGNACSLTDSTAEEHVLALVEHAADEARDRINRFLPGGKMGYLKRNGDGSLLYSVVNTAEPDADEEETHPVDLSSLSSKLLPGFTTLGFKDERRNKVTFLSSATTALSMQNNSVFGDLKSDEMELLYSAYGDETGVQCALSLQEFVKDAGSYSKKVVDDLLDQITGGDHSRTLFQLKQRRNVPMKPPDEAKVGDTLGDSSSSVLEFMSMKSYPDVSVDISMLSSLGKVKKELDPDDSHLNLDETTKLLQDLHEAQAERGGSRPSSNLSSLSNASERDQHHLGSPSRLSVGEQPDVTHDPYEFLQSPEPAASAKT
# [17] = target: T3, Bromodomain testis-specific protein; test: Binding affinity to BRDT in human HUT78 cells incubated for 45 mins by mass spectrometry based bromosphere chemoproteomic assay; format: cell-based
# [18] = target: T5, Peregrin (Homo sapiens, UniProt P55201); test: Binding affinity to BRPF1 in human HUT78 cells incubated for 45 mins by mass spectrometry based bromosphere chemoproteomic assay; format: cell-based
# T5 sequence (P55201 whole entry): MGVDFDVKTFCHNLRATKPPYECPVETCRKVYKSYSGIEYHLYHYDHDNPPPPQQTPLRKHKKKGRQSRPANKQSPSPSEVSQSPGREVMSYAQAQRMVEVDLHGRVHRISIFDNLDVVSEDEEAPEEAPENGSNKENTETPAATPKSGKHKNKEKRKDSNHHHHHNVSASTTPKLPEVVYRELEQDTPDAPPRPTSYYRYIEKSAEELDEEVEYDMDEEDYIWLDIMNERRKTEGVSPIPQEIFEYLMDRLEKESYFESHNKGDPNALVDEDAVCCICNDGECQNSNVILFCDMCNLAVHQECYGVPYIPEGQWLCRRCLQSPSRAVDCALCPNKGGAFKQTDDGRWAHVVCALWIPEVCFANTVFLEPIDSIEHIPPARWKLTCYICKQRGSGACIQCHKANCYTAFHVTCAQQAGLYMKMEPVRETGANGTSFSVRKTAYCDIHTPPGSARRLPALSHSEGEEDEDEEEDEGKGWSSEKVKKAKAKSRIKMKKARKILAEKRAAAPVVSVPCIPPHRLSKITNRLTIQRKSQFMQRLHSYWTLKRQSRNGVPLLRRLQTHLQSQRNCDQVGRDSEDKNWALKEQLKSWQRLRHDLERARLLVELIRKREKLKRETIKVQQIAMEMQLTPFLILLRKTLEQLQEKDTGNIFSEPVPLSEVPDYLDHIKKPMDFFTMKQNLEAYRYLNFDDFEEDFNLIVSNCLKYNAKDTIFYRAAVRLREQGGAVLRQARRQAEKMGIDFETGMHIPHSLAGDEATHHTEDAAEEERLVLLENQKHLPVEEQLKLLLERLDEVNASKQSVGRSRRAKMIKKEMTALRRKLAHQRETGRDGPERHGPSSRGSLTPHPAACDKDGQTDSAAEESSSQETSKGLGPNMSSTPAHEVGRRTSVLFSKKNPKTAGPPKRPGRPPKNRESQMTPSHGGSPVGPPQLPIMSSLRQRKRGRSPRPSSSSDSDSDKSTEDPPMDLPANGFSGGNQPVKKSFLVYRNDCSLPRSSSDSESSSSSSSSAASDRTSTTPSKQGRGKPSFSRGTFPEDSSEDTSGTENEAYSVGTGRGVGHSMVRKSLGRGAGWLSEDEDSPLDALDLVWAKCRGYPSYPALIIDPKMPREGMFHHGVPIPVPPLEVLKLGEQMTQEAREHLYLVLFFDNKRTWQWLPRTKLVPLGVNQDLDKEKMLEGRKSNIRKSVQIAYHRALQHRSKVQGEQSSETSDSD
# [19] = target: Histone acetyltransferase KAT2A (Homo sapiens, UniProt Q92830); test: Binding affinity to KAT2A in human HUT78 cells incubated for 45 mins by mass spectrometry based bromosphere chemoproteomic assay; format: cell-based
# Chain of Histone acetyltransferase KAT2A (Q92830 whole entry): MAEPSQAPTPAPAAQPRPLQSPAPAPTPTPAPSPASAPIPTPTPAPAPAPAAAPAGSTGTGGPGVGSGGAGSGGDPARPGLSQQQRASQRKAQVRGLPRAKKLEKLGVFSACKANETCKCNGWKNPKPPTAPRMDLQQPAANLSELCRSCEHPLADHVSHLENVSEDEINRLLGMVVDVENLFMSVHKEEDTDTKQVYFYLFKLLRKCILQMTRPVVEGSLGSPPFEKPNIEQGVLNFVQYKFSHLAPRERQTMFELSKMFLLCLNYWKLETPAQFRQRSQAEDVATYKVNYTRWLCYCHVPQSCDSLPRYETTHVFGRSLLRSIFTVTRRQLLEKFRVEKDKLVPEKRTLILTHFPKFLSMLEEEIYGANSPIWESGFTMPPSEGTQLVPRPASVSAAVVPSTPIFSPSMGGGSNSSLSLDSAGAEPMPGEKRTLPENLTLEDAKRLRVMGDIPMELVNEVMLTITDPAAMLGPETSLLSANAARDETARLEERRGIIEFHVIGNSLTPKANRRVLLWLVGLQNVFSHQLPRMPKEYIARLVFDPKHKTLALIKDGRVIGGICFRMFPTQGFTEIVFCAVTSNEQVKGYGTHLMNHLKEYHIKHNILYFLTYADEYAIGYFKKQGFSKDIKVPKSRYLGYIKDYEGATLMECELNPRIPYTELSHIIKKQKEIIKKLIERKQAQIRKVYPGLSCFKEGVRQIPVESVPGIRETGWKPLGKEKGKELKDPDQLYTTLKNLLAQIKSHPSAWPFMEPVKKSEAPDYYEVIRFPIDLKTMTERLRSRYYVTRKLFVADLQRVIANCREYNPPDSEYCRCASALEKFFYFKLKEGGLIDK
# [20] = target: Histone acetyltransferase KAT2B (Homo sapiens, UniProt Q92831); test: Binding affinity to KAT2B in human HUT78 cells incubated for 45 mins by mass spectrometry based bromosphere chemoproteomic assay; format: cell-based
# [21] = target: Protein polybromo-1 (Homo sapiens, UniProt Q86U86); test: Binding affinity to PBRM1 in human HUT78 cells incubated for 45 mins by mass spectrometry based bromosphere chemoproteomic assay; format: cell-based
# Chain of Protein polybromo-1 (Q86U86 whole entry): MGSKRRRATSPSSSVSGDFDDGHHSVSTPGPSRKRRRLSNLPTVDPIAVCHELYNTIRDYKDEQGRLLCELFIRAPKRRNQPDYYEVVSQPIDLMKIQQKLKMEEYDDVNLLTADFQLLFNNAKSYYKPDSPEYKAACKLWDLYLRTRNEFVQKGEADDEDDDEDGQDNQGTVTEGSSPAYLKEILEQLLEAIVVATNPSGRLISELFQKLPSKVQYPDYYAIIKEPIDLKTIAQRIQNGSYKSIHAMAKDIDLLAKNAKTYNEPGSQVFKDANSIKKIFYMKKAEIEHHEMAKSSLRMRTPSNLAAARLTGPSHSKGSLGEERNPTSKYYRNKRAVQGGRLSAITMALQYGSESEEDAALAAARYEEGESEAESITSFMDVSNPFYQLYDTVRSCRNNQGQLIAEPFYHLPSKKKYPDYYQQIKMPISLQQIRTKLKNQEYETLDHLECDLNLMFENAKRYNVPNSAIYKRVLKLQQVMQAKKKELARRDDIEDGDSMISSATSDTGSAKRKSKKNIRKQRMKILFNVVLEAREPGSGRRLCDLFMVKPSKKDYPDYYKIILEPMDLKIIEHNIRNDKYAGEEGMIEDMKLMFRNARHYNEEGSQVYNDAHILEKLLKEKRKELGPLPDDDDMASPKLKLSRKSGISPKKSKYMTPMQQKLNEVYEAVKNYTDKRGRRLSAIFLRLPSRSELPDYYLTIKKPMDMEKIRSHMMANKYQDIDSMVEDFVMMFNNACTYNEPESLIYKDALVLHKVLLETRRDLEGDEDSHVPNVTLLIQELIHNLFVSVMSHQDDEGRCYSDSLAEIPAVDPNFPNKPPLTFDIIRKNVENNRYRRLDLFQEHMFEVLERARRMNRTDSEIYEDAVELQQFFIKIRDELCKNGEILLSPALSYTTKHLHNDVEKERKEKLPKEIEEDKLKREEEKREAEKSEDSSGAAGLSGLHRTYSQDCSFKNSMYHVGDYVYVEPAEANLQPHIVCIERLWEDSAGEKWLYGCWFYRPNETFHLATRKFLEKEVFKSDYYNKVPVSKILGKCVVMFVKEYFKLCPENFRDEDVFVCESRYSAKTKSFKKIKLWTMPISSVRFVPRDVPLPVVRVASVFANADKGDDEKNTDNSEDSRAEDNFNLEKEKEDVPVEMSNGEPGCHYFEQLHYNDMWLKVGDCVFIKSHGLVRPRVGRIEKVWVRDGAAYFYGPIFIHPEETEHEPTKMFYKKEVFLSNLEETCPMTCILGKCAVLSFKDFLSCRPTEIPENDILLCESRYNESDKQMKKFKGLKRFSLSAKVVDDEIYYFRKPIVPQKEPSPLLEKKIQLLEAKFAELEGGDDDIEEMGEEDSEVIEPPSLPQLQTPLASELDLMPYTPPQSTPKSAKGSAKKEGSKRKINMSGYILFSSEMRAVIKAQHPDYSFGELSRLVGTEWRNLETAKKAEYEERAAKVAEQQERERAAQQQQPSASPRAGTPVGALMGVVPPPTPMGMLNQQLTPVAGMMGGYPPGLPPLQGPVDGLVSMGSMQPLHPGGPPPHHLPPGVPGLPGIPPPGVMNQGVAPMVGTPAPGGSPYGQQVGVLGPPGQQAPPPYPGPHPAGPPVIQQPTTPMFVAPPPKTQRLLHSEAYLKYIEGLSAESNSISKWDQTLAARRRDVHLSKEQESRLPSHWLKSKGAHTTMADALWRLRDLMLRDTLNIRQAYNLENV
# [22] = target: Transcription initiation factor TFIID subunit 1 (Homo sapiens, UniProt P21675); test: Binding affinity to TAF1 in human HUT78 cells incubated for 45 mins by mass spectrometry based bromosphere chemoproteomic assay; format: cell-based
# Chain of Transcription initiation factor TFIID subunit 1 (P21675 whole entry): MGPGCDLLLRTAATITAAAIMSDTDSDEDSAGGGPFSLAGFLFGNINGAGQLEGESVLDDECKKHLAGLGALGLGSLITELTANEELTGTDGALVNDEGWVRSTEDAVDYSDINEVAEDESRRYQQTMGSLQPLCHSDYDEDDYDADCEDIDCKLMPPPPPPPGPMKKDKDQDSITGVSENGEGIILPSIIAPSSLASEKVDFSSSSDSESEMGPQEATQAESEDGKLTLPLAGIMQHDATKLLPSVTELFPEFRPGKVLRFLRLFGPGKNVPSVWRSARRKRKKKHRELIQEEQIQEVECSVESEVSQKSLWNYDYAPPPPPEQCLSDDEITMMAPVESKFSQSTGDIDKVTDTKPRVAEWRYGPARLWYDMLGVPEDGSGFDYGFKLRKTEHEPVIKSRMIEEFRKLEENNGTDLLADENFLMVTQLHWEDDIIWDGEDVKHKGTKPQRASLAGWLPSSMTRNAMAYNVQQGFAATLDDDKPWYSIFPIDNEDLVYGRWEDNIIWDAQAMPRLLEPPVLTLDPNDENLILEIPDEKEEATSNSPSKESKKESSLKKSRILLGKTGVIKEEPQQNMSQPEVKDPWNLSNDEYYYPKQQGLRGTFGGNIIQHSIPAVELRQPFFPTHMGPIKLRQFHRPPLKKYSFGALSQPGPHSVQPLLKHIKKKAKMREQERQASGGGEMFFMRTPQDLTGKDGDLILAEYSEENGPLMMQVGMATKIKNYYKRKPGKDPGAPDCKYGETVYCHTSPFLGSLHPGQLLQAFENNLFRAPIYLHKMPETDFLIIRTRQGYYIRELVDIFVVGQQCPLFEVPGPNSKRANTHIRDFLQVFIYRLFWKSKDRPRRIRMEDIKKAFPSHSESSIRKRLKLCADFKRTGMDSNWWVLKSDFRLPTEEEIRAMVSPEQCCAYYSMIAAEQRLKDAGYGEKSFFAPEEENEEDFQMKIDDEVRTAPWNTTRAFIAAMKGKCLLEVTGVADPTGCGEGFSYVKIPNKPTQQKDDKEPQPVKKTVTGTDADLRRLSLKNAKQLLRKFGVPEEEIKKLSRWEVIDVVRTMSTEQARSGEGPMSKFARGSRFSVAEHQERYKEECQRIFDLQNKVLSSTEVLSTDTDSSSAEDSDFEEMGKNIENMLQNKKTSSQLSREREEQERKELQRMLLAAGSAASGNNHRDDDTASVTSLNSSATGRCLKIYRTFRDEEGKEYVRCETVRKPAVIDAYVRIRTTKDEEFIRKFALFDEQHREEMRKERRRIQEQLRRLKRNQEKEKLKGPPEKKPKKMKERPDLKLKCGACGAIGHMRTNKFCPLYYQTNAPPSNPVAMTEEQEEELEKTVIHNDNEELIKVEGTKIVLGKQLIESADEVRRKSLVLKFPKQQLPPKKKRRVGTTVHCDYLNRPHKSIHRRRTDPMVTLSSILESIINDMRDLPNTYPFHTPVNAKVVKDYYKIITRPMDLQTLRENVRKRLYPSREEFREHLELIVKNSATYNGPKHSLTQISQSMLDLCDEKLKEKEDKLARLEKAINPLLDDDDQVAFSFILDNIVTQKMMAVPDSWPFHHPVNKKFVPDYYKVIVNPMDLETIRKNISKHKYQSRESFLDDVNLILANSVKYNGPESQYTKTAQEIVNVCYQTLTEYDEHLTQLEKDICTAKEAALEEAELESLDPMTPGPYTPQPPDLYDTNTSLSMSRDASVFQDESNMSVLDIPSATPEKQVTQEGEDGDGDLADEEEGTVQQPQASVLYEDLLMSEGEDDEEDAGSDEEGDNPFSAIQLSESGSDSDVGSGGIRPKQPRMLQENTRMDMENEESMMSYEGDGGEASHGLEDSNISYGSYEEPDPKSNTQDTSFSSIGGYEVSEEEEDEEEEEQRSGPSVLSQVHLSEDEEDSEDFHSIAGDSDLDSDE
# T1 sequence (Q15059 whole entry): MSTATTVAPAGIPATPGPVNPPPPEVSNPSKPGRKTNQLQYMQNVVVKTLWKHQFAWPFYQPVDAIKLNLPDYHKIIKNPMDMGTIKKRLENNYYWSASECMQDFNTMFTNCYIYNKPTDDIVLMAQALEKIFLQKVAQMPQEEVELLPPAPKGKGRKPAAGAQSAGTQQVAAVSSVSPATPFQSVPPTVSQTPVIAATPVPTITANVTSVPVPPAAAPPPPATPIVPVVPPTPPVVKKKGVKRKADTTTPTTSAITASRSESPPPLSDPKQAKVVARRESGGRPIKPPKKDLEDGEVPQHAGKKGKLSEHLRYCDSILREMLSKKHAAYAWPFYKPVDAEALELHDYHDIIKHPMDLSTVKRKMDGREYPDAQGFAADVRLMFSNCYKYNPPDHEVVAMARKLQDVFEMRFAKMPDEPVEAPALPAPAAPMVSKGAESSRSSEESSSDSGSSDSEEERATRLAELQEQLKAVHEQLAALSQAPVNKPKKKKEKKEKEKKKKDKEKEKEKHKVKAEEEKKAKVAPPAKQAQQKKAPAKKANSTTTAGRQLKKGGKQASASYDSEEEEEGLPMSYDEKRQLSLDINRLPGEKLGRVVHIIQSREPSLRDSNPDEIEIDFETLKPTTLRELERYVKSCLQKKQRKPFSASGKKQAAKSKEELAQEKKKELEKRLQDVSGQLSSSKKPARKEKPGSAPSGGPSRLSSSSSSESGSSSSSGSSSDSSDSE
chromatographic logD [1],Papp at 3 h [2] [×10⁻⁶ cm/s],solubility kinetic at 1 h [9] [µM],Kd [11] [µM],Kd [12] [µM],Kd [13] [µM],Kd [14] [µM],Kd [16] [µM],Kd [18] [µM],Kd [19] [µM],Kd [21] [µM],Kd [22] [µM],SMILES,other results
1.6,< 0.3,179,,,,,,,,,,Cc1cncc(-c2cnc(N[C@@H]3CCNC[C@H]3OCC3CCS(=O)(=O)CC3)c3[nH]c(=O)c(C)cc23)c1,IC50 [3]: > 50.1 µM; IC50 [4]: 15.8 µM; IC50 [5]: > 50.1 µM; IC50 [6]: 5.01 µM; IC50 [7]: > 50.1 µM; IC50 [8]: 15.8 µM
,,,3.98,> 100,0.631,1,1.26,25.1,> 100,2.51,1.58,Cc1cncc(-c2ccc(N[C@@H]3CCNC[C@H]3OCC3CCS(=O)(=O)CC3)c3[nH]c(=O)c(C)cc23)c1,Kd [10]: > 100 µM; Kd [15]: 3.16 µM; Kd [17]: 2 µM; Kd [20]: > 100 µM
4,13.8,170,> 100,> 100,3.16,2,15.8,> 100,> 100,> 100,31.6,Cc1cncc(-c2cnc(N[C@@H]3CCNC[C@H]3OCC3CCCCC3)c3[nH]c(=O)c(C)cc23)c1,

# From ChEMBL document CHEMBL3588744, “Structure-Based Optimization of Naphthyridones into Potent ATAD2 Bromodomain Inhibitors” (J Med Chem, 2015)
